Test results taken from patent US20160207893A1, “NOVEL CALCIUM MODULATORS” (Myotherix, Inc., priority 2014, published 2016).

Columns and labels:
[1] = system: human Duchenne muscular dystrophy (hDMD) myoblast cells; test: Calcium release, SR calcium leak and SOCE in Fluo-4/AM-loaded hDMD myoblasts (CPA protocol); assay type: cell-based; details: 30 uM; for Integrated CPA-Induced CaT (area under the curve) (% Reduction in Peak A): CPA in Ca2+-free solution; for % Reduction in Peak CaT after return to 2 mM Ca^2+ (% Reduction in Peak E): SOCE-induced calcium transit
Description: Parameters measured are A, the peak CPA-induced calcium transit (F/F0); B, the maximum rate of rise of CPA-induced calcium transit (+ΔF/s); C, the maximum rate of decline of CPA-induced calcium transit (−ΔF/s); D, the integrated CPA-induced calcium transit (F.s); and E, the SOCE-induced calcium transit (F/F0).
Cell Preparation: De-identified telomerized human Duchenne muscular dystrophy (hDMD) myoblast cells were grown under standard cell culture conditions in 35 mm glass bottom petri dishes (MatTek, Ashland, Mass.) specially designed for perfusion and imaging.
Uncoated coverslips were coated with gelatin and hDMD cells seeded at ˜40-60% confluency 24 hours prior to fluorescence experiments.
Step 1. Cell Loading with the Fluorescent Ca^2+ Indicator Fluo-4/AM (Cell Permeant Form): hDMD cells were loaded with 5 μM Fluo-4/AM (Thermo Fisher Scientific) for 45 min at room temperature in the same buffer used for experiments of which composition is described below. After the incubation, the cells are washed twice with the same buffer without the indicator. Fluorescence experiments were initiated after a 30 min incubation in indicator-free buffer to allow for de-esterification of the dye and conversion to its acid active form by endogenous esterases.
Step 2. Fluo-4 Fluorescence Detection: A 35 mm petri dish containing Fluo-4-loaded myoblasts was set on the stage of an inverted Nikon Diaphot 300 epifluorescence microscope equipped with a dual PMT ratiometric fluorimeter system (Model SFX-2, Solamere Technology Group, Salt Lake City, Utah) and optical switch (Model DX-1000, Salt Lake City, Utah), a B/W camera and monitor, a PC computer running on Windows 7 Pro operating system and A/D-D/A data acquisition hardware (Axon Instruments Inc., Digidata 1440 interface) and software (Axon Instruments Inc., Axoscope v. 9.2). During a typical experiment, ca. one third to one half of a cell (field of view narrowed by a manually-controlled diaphragm) is visualized on the B/W TV monitor with an oil immersion 40× Fluor objective (NA=1.3) and defines the area from which epifluorescence intensity will be measured by one of the two PMTs (non-ratiometric measurements). For all experiments, the cells are excited by visible light produced by a 100 W mercury arc lamp centered at 488 nm. Emitted fluorescence at 520 nm is transmitted to the lateral port of the microscope by means of dichroic mirrors and a specific barrier filter located in one of three microscope filter cubes. Before each day of experiments, background fluorescence is cancelled by measuring emitted fluorescence in an unloaded cell. For all cells loaded with Fluo-4/AM, relative fluorescence intensity at 520 nm (filtered at 5 Hz) is normalized to Fluo-4 fluorescence intensity measured in Ca^2+-free medium (F/F0) prior to the addition of 10 μM cyclopiazonic acid (CPA; see protocol description below) to monitor Ca^2+ leakage from the sarcoplasmic reticulum (SR). Free intracellular Ca^2+ concentration is continuously monitored (>20 min; acquisition rate=200 Hz) with no evidence of photobleaching due to low level of excitation light intensity used and sensitivity of the Hamamatsu PMT set to high power.
After mounting the petri dish containing Fluo-4-loaded cells on the microscope stage, cell perfusion with normal physiological salt solutions (PSS) containing 2 mM Ca^2+ was initiated. A myoblast cell was then chosen under normal illumination. Fluo-4 fluorescence intensity recording was then initiated for 2 to 3 minutes to assess the level of loading and stability of the measurement. Once these conditions were met, the solution was switched to Ca^2+-free PSS for 5 min, and then switched for another 5 min to Ca^2+-free PSS containing only vehicle (Control; maximal concentration of 0.1% dimethyl sulfoxide) or vehicle plus drug to be tested (Test). […]

[2] = Plasma stability (incubation in mouse plasma, LC/MS/MS); assay type: in vitro ADME; details: for Plasma Stability, Time 0 min / Plasma Stability, Time 30 min / Plasma Stability, Time 60 min / Plasma Stability, Time 240 min: 37° C., 20 μM, parent remaining vs 0-min control
Description: The assay was carried out in 96-well microtiter plates. Compounds were incubated at 37° C. in the presence of the plasma. Reaction mixtures (50 μL) contained a final concentration of 20 μM test compound. The extent of metabolism was calculated as the disappearance of the test compound, compared to the 0-min control reaction incubations. Eucatropine was included as a positive control to verify assay performance.
At each of the time points, 500 μL of quench solution (100% acetonitrile with 0.1% formic acid) with internal standard was transferred to each well. Plates were sealed, vortexed, and centrifuged at 4° C. for 15 minutes at 4000 rpm. The supernatant was transferred to fresh plates for LC/MS/MS analysis.
All samples were analyzed on LC/MS/MS using an AB Sciex API 4000 instrument, coupled to a Shimadzu LC-20AD LC Pump system. Analytical samples were separated using a Waters Atlantis T3 dC18 reverse phase HPLC column (10 mm×2.1 mm) at a flow rate of 0.5 mL/min. The mobile phase consisted of 0.1% formic acid in water (solvent A) and 0.1% formic acid in 100% acetonitrile (solvent B). Elution conditions are detailed in the table below.

[3] = system: mdx mice; test: Histology (H&E): muscle regeneration and markers of inflammation in treated mdx mice; assay type: in vivo, mouse; details: 4-weeks treatment
Description: (§1) mdx C57BL/10 mice (15 mice per group) (Jackson Laboratory; mdx mice stock number 001801; C57BL/10 stock number 000476) were treated with Example 20 formulated in food (347 mg of Example 20 blended into 1 kg of Purina LabDiet Rodent 5001). Based on calculated food consumption, the dose of Example 20 was estimated to be 60 mg/Kg, administered daily in diet for 4 weeks.
(§2) Mice were delivered at 4 weeks of age, and acclimatized for an additional seven days prior to initiation of the study. All animals were weighed, and grouped into different treatment groups based on body weight. Each group received an appropriate daily dosage of Example 20 or vehicle. Age and sex-matched C57BL/10 (vehicle) were used as controls. Exposure levels of Example 1 (the metabolism product of Example 20) in mouse plasma was measured in a separate 5-day pharmacokinetic study in mdx mice prior to the initiation of the 4-week study. Plasma samples were also taken at the termination of the 4-week study for pharmacokinetic assessment in which exposure leves of Example 1 were again measured (the results are set out below). The functional measurements (grip strength measurement and exhaustion assay) were performed after treatment. At the end of the trial, the extensor digitorum longus muscle (EDL) and diaphragm in vitro force measurements were taken, and dissection of the mice was performed to collect tissues. Histology evaluation (H&E) was performed on the frozen sections of the diaphragm and gastrocnemius muscles for each group.
Diaphragm and gastrocnemius muscles of untreated and drug-treated mice were isolated and included in Killik frozen section medium, frozen and cut into 8-μm thick sections with the muscle fibers oriented transversely using a cryostat. Sections were stained with Hematoxylin & Eosin to evaluate markers of inflammation, muscle degeneration and regeneration and percentage central nuclei according to Grounds (TREAT NMD SOP protocol DMD_M.1.2.007, Quantification of histopathology in Haemotoxylin and Eosin stained muscle sections).

[4] = system: mdx mice; test: In vitro force measurement of diaphragm muscle of treated mdx mice; assay type: in vivo, mouse; details: ca. 60 mg/kg in diet, four weeks of daily treatment (FIG. 8)
Description: as §1
as §2, with “Histology evaluation (H&E) was performed on the frozen sections of the diaphragm and gastrocnemius muscles for each group.” left out

[5] = system: iCell Cardiomyocytes (hIPS cardiomyocytes); test: Calcium transient dynamics in cardiomyocytes derived from human stem cells by Kinetic Image Cytometry; assay type: cell-based
Description: CTD25: Approximates the time elapsed during the first 25% of the transient duration. The measurement assesses the time elapsed from the 75% point of upstroke to the 75% point on the downstroke relative to the peak. Full Width Half Maximum (FWHM): The time elapsed from the 50% point of the upstroke to the 50% point of the down stroke. CTD75: Approximates the time elapsed for 75% of the transient duration. The measurement assesses the time elapsed from the 25% point of upstroke to the 25% point on the down stroke relative to the peak. CTD90: Approximates the time elapsed for 90% of the transient duration. The measurement assesses the time elapsed from the 10% point of upstroke to the 10% point on the down stroke relative to the peak. Decay Time: The time elapsed from the peak to the 50% point of the down stroke T75-25: The time elapsed from the 75% point of the transient maximum to the 25% point of the transient maximum on the down stroke. Beat Rate is assessed by measuring the number of transients observed during the recording period and extrapolating out to the number of expected beats per minute.
Analysis of Test Compounds on Calcium Transient Dynamics in Cardiomyocytes Derived from Human Stem Cells by Kinetic Image Cytometry
Cryopreserved cells (Cellular Dynamics International) were plated onto 96 well tissue culture plates previously coated with Matrigel (250 μg/ml) at a density of 25,000 cells per well, and maintained for two days in plating medium at 37° C. and 7% CO2. After two days in culture, the plating media was replaced with maintenance media and the cells were kept at 37° C. and 7% CO2 with the maintenance media replaced every other day. The cardiomyocytes were maintained in culture for 10 days prior to their use in the assay.
Prior to treatment with the test compounds, the cardiomyocytes were loaded using Fluo-4NW, Hoechst 33342 (200 ng/ml), and 2.5 mM probenecid in the supplied Fluo-4NW assay buffer. Cells were loaded for 1 hour at 37° C.
Test compounds were diluted to their final concentration in Tyrode's solution and brought to 37° C. In addition to standard 2 mM CaCl2 Tyrode's solution, elevated calcium variations using 4 mM and 6 mM CaCl2 were examined in separate test sets.
The hIPS Cardiomyocytes were also prepared for testing with 1 Hz electrical stimulation in standard 2 mM CaCl2 Tyrodes, and test compounds were prepared as described above. […]
Vala Sciences' Kinetic Image Cytometer (KIC™) was used to capture movies of the intracellular calcium transients. The environmental control chamber of the KIC was set to 37° C. and the KIC was fitted with a 20× objective and captured one image of the nuclei (Hoechst), then recorded 10 seconds of spontaneous activity (Fluo-4NW) at 30 fps from each well.

| Structure (SMILES) | Integrated CPA-Induced CaT (area under the curve) (% Reduction in Peak A) [1] | % Reduction in Peak CaT after return to 2 mM Ca^2+ (% Reduction in Peak E) [1] | Plasma Stability, Time 0 min [2] | Plasma Stability, Time 60 min [2] | Plasma Stability, Time 240 min [2] | other results |
| --- | --- | --- | --- | --- | --- | --- |
| COc1ncc2c(n1)CN(Cc1ccc(C(=O)O)cc1)CCS2 [Example 17, 4-((2-Methoxy-6,7-dihydropyrimido[4,5-f][1,4]thiazepin-8(9H)-yl)methyl)benzoic acid] | 23.0% | 21% |  |  |  |  |
| CC1CC(OC(=O)C(O)c2ccccc2)CC(C)(C)N1C (stereo not shown) [Eucatropine, reference compound] |  |  | 100.0% | 67.4% | 41.0% | Plasma Stability, Time 30 min [2]: 90.0% |
| [2H]C(c1ccc(C(=O)OCCCCO[N+](=O)[O-])cc1)N1CCSc2ccc(OC)cc2C1([2H])[2H] (stereo not shown) [Example 20] |  |  | 100.0% | 0.6% | 0.3% | increase in regenerating fibers/mm^2 in the diaphragm [3]: > 25%; increase in regenerating fibers/mm^2 in the gastrocnemius muscle [3]: > 50%; reduction in inflammatory foci/mm^2 in the gastrocnemius muscle [3]: > 30%; maximal force in the diaphragm [4]: significant improvement; specific force in the diaphragm [4]: significant improvement |
| COc1ccc2c(c1)CN(C)CCS2 [Example S107, reference compound] | 74.1% | 52.8% |  |  |  |  |
| COc1ccc2c(n1)CN(Cc1ccc(C(=O)O)cc1)CCS2 [Example 9, 4-((7-Methoxy-2,3-dihydropyrido[2,3-f][1,4]thiazepin-4(5H)-yl)methyl)benzoic acid] | 19.4% | 40.7% |  |  |  |  |
| COc1cnc2c(c1)CN(Cc1ccc(C(=O)O)cc1)CCS2 [Example 13, 4-((7-Methoxy-2,3-dihydropyrido[3,2-f][1,4]thiazepin-4(5H)-yl)methyl)benzoic acid] | 25.9% | 80.8% |  |  |  |  |
| COc1cc2c(cn1)SCCN(Cc1ccc(C(=O)O)cc1)C2 [Example 2, 4-((7-Methoxy-2,3-dihydropyrido[4,3-f][1,4]thiazepin-4(5H)-yl)methyl)benzoic acid] | 43.3% | 41.4% |  |  |  | CTD75 shortened to % of control ([5]; 10 uM, 30 uM (FIG. 5)): 79 % of control; triangulation T75-25 reduced to % of control ([5]; 10 uM, 30 uM (FIG. 5)): 71 % of control; effect on proarrhythmia and calcium transient ([5]; 10 uM, 30 uM, spontaneously beating cells in 4 mM calcium Tyrode's solution (FIG. 4)): dose-related reduction of proarrhythmia and calcium transient shortening |
| COC(=O)C1=C(C)NC(C)=C([N+](=O)[O-])C1c1ccccc1C(F)(F)F (stereo not shown) [Bay K8644, reference compound] |  |  |  |  |  | CTD75 relative to vehicle control ([5]; reference compounds at 1 uM, under each experimental condition, 0.1% DMSO vehicle): ≥ 125 % of vehicle control |
| [2H]C(c1ccc(C(=O)O)cc1)N1CCSc2ccc(OC)cc2C1([2H])[2H] (stereo not shown) [Example 1, 4-((5,5-Dideutero-7-methoxy-2,3-dihydrobenzo[f][1,4]thiazepin-4(5H)-yl)deuteromethyl)benzoic acid] |  |  | 100.0% | 99.8% | 102.1% | plasma stability after 2-hours of incubation in plasma ([2]; 2-hours of incubation): unchanged; Plasma Stability, Time 30 min [2]: 111.2% |
